Where two headings read alike, the source gives them in different places.
Experiments:
stress ulcer = experiment: Anti-ulcerogenic effect, stress ulcer (Takagi, Okabe); format: in vivo; settings: po, i.g.
Excerpt: (§1) The following Table summarizes the results of pharmacological studies conducted with the compound according to the invention, 1,1-diphenyl-4-pyrrolidinyl-2-butyne-1-ol-N-methyl ammonium bromide, and with butynoline phosphate as the comparison substance.
effect i.g. i.g. Jap. J. Pharmac. 18,

[1] = tested on: carbachol-induced gastric secretion; experiment: Inhibition of the carbachol-induced gastric secretion (Heidenhain cat) (Engler, Fritschi); format: in vivo; settings: Felis catus, po, i.g.
Excerpt: as §1
0.3 0.3 Schmiedeberg's Arch.
(Heidenhain cat) Pharmacol. 297,

[2] = target: T1, Mee-ileum (Cavia porcellus); experiment: Spasmolytic effect in vitro (Mee-ileum) (Van Rossum); settings: ACH, read-out: Spasmolytic effect in vitro pA2 (ACH) (converted)
T1 construct: in vitro (Mee-ileum); from tissue; host or cells: isolated ileum ('Mee-ileum', read as guinea pig ileum)
Excerpt: as §1
8.0 8.2 Arch. Int. Pharmaco-

[3] = Mydriasis, cholinolytic side effects (Pulewka); settings: in vivo, po, i.g.
Excerpt: (§2) As already mentioned, the compounds according to the invention show better pharmacological properties than the known butynoline phosphate, particularly in regard to the broncholytic and anti-ulcerogenic effect obtainable therewith. Tests relating to inhibition of the carbachol-induced secretion of saliva and mydriasis have shown that the compounds according to the invention have fewer side effects than the known butynoline phosphate.
as §1
i.g. i.g. exp. Pharmacol.

ACH = experiment: Broncholysis (guinea pig), ACH (Konzett, Rossler); format: in vivo; settings: Cavia porcellus, iv
Excerpt: as §1
(§3) ACH 30 ACH 60 Rossler, R.,
(§4) Hi 500 Hi 1000 Arch. exp. Pharmacol.

[4] = Inhibition of the carbachol-induced secretion of saliva (rat), cholinolytic side effects (mod. Brown, Quinton); settings: in vivo, po, i.g.
Excerpt: as §2, §1
i.g. i.g. Brown, D. M., Quinton,
24 9.8 R. M., Brit. J. Pharma-

Hi = experiment: Broncholysis (guinea pig), Hi (Konzett, Rossler); format: in vivo; settings: Cavia porcellus, iv
Excerpt: as §1, §3, §4

[5] = in words; cited from earlier work

T1 sequence (H0W1Z3 1-590): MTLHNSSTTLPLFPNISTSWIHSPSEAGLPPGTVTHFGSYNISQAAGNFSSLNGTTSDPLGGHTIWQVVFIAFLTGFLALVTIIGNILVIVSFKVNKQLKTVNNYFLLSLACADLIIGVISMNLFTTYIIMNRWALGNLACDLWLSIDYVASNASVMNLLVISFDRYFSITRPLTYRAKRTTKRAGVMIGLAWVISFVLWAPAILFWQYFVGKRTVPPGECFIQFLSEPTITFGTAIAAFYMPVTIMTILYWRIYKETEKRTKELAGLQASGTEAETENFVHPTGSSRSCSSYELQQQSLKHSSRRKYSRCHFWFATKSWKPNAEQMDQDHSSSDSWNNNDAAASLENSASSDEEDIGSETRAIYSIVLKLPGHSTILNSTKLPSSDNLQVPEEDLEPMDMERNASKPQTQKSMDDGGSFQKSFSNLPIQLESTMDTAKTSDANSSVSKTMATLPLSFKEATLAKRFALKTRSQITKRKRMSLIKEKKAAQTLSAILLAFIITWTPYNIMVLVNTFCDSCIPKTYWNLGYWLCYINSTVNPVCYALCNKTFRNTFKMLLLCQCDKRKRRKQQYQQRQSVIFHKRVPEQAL

Row | Compound | ED50 (stress ulcer) | ED50 ([1]; butynoline phosphate column, read-out: Inhibition of the carbachol-induced gastric secretion ED50 (ACH)) | Kb [2] | ED50 [3] | ED50 (ACH) | ED50 [4] | ED50 (Hi) | pharmacological activity (known) [5] | ED50 ([1]; read-out: Inhibition of the carbachol-induced gastric secretion ED50)
1 | OC(C#CCN1CCCC1)(c1ccccc1)c1ccccc1 [Butynoline phosphate, phosphate of 1,1-diphenyl-4-pyrrolidino-2-butyne-1-ol] | 150 mg/kg | 0.3 mg/kg | 6.31 nM | 16 mg/kg | 0.06 mg/kg | 9.8 mg/kg | 1 mg/kg | anti-cholinergic spasmolytic and anti-ulcerogenic activity | –
2 | C[N+]1(CC#CC(O)(c2ccccc2)c2ccccc2)CCCC1 [1,1-diphenyl-4-pyrrolidinyl-2-butyne-1-ol-N-methyl ammonium bromide] | 25 mg/kg | – | 10 nM | 128 mg/kg | 0.03 mg/kg | 24 mg/kg | 0.5 mg/kg | – | 0.3 mg/kg

From patent US4420488A, “Quaternary 1,1-diphenyl-4-pyrrolidinium-2-butyne salts, a process for their production and medicaments containing these compounds” (Ludwig Heumann & Co. GmbH, priority 1980, dated 1983)
